Reference: US11419918B2, “Treatment of biliary cirrhosis based on oxyntomodulin analogue GLP-1R/GCGR dual-target agonist peptide” (Shenzhen Turier Biotech Co., Ltd., priority 2017, dated 2022)
Numbered stars: 1 amine (or outer) side, 2 acyl side, 3 side chain; on linkers, the order of the positions; unused ones are H or OH. Square brackets hold non-standard residues; d marks the D form. Primed or numbered codes have the meaning given here. Side chains are listed from the residue outwards. Ends that are not written are not given here. * marks the point of attachment. C18 diacid = O=C(O)CCCCCCCCCCCCCCCCC(=O)*; C16 diacid = O=C(O)CCCCCCCCCCCCCCC(=O)*; γGlu = O=C(O)[C@H](CCC(=O)[*:2])N[*:1]; Stearoyl = CCCCCCCCCCCCCCCCCC(=O)*; Palmitoyl = CCCCCCCCCCCCCCCC(=O)*; PEG2′ = not defined here; Aib = CC(C)(N)C(=O)O

System: human hepatic stellate cells (LX-2)
Test: In vitro inhibition of hepatic fibrosis: expression of activation marker α-SMA in LX-2 cells (Western Blot, β-actin internal reference)
Format: cell-based
Settings: 10.0 μM, 48 hours, negative control (PBS) = 100%
Experimental: Hepatic stellate cell strain LX-2 was selected to study and observe the effect of different doses of test substances on the expression of LX-2 cell activation marker α-SMA. Hepatic stellate cell LX-2 was laid on 35 mm cell culture plate, cultured with DMEM (high glucose)+10% FBS+1% double-antibody culture medium (Thermo Fisher), placed overnight when the cells grew to 70% convergence at 37° C. and under the condition of 5% CO2, and treated with the above GLP-1R/GCGR dual target agonist polypeptides 1-48 (dissolved in PBS) for 48 hours the next day morning to extract cell protein, carry out Western Blot, and take β-actin as internal reference and analyze the expression quantities of α-SMA and β-actin by a gray level of Image J 1.50i. PBS with the same volume as that in experimental group was added in negative control. […] The integrating gray level of α-SMA/β-actin in the negative control group was 100% to analyze the in vitro inhibition activity of hepatic fibrosis of tested polypeptide.

Row | Substance | Relative expression of α-SMA (α-SMA/β-actin, %)
1 | His-Aib-Gln-Gly-Thr-Phe-Thr-Ser-Asp-Lys(PEG2-PEG2-γGlu-CO(CH2)16CO2H)-Ser-Lys-Tyr-Leu-Asp-Aib-Arg-Arg-Ala-Gln-Asp-Phe-Val-Gln-Trp-Leu-Leu-Asp-Gly-Gly-Pro-Ser-Ser-Gly-Ala-Pro-Pro-Pro-Ser-NH2 (H[Aib]QGTFTSDK([PEG2′-PEG2′-γGlu-C18 diacid])SKYLD[Aib]RRAQDFVQWLLDGGPSSGAPPPS-NH2) [Compound 19] | 39.75%
2 | His-(D-Ser)-Gln-Gly-Thr-Phe-Thr-Ser-Asp-Lys(PEG2-PEG2-CO(CH2)16CH3)-Ser-Lys-Tyr-Leu-Asp-Aib-Arg-Arg-Ala-Gln-Asp-Phe-Val-Gln-Trp-Leu-Met-Asn-Thr-Gly-Gly-Pro-Ser-Ser-Gly-Ala-Pro-Pro-Pro-Ser-NH2 (H[dS]QGTFTSDK([PEG2′-PEG2′-Stearoyl])SKYLD[Aib]RRAQDFVQWLMNTGGPSSGAPPPS-NH2) [Compound 32] | 37.14%
3 | His-(D-Ser)-Gln-Gly-Thr-Phe-Thr-Ser-Asp-Lys(PEG2-PEG2-γGlu-CO(CH2)16CO2H)-Ser-Lys-Tyr-Leu-Asp-Aib-Arg-Arg-Ala-Gln-Asp-Phe-Val-Gln-Trp-Leu-Leu-Asn-Thr-Gly-Gly-Pro-Ser-Ser-Gly-Ala-Pro-Pro-Pro-Ser-NH2 (H[dS]QGTFTSDK([PEG2′-PEG2′-γGlu-C18 diacid])SKYLD[Aib]RRAQDFVQWLLNTGGPSSGAPPPS-NH2) [Compound 47] | 40.36%
4 | His-(D-Ser)-Gln-Gly-Thr-Phe-Thr-Ser-Asp-Tyr-Ser-Lys(PEG2-PEG2-CO(CH2)16CO2H)-Lys-Leu-Asp-Aib-Arg-Arg-Ala-Gln-Asp-Phe-Val-Gln-Trp-Leu-Met-Asn-Thr-Gly-Gly-Pro-Ser-Ser-Gly-Ala-Pro-Pro-Pro-Ser-NH2 (H[dS]QGTFTSDYSK([PEG2′-PEG2′-C18 diacid])KLD[Aib]RRAQDFVQWLMNTGGPSSGAPPPS-NH2) [Compound 2] | 41.62%
5 | His-Aib-Gln-Gly-Thr-Phe-Thr-Ser-Asp-Lys(PEG2-PEG2-γGlu-CO(CH2)16CO2H)-Ser-Lys-Tyr-Leu-Asp-Glu-Arg-Arg-Ala-Gln-Asp-Phe-Val-Gln-Trp-Leu-Leu-Asp-Gly-Gly-Pro-Ser-Ser-Gly-Ala-Pro-Pro-Pro-Ser-NH2 (H[Aib]QGTFTSDK([PEG2′-PEG2′-γGlu-C18 diacid])SKYLDERRAQDFVQWLLDGGPSSGAPPPS-NH2) [Compound 15] | 57.29%
6 | His-(D-Ser)-Gln-Gly-Thr-Phe-Thr-Ser-Asp-Tyr-Ser-Lys-Tyr-Leu-Asp-Ser-Lys(PEG2-PEG2-γGlu-CO(CH2)16CH3)-Ala-Ala-His-Asp-Phe-Val-Glu-Trp-Leu-Leu-Arg-Ala-NH2 (H[dS]QGTFTSDYSKYLDSK([PEG2′-PEG2′-γGlu-Stearoyl])AAHDFVEWLLRA-NH2) [Compound 25] | 53.34%
7 | His-(D-Ser)-Gln-Gly-Thr-Phe-Thr-Ser-Asp-Tyr-Ser-Lys-Tyr-Leu-Asp-Glu-Lys-Ala-Ala-Lys(PEG2-PEG2-γGlu-CO(CH2)16CH3)-Glu-Phe-Ile-Glu-Trp-Leu-Leu-Asn-Gly-Gly-Pro-Ser-Ser-Gly-Ala-Pro-Pro-Pro-Ser-NH2 (H[dS]QGTFTSDYSKYLDEKAAK([PEG2′-PEG2′-γGlu-Stearoyl])EFIEWLLNGGPSSGAPPPS-NH2) [Compound 28] | 37.62%
8 | His-(D-Ser)-Gln-Gly-Thr-Phe-Thr-Ser-Asp-Tyr-Ser-Lys-Tyr-Leu-Asp-Glu-Lys-Ala-Ala-Lys(PEG2-PEG2-γGlu-CO(CH2)16CO2H)-Glu-Phe-Ile-Glu-Trp-Leu-Leu-Asn-Gly-Gly-Pro-Ser-Ser-Gly-Ala-Pro-Pro-Pro-Ser-NH2 (H[dS]QGTFTSDYSKYLDEKAAK([PEG2′-PEG2′-γGlu-C18 diacid])EFIEWLLNGGPSSGAPPPS-NH2) [Compound 26] | 44.44%
9 | His-(D-Ser)-Gln-Gly-Thr-Phe-Thr-Ser-Asp-Tyr-Ser-Lys-Tyr-Leu-Asp-Lys(PEG2-PEG2-CO(CH2)16CO2H)-Arg-Arg-Ala-Gla-Asp-Phe-Val-Gln-Trp-Leu-Met-Asn-Thr-Gly-Gly-Pro-Ser-Ser-Gly-Ala-Pro-Pro-Pro-Ser-NH2 (H[dS]QGTFTSDYSKYLDK([PEG2′-PEG2′-C18 diacid])RRAQDFVQWLMNTGGPSSGAPPPS-NH2; also: position 20: name writes Gla, letters give Q) [Compound 35] | 51.28%
10 | His-Aib-Gln-Gly-Thr-Phe-Thr-Ser-Asp-Lys(PEG2-PEG2-γGlu-CO(CH2)14CO2H)-Ser-Lys-Tyr-Leu-Asp-Aib-Arg-Arg-Ala-Gln-Asp-Phe-Val-Gln-Trp-Leu-Leu-Asp-Gly-Gly-Pro-Ser-Ser-Gly-Ala-Pro-Pro-Pro-Ser-NH2 (H[Aib]QGTFTSDK([PEG2′-PEG2′-γGlu-C16 diacid])SKYLD[Aib]RRAQDFVQWLLDGGPSSGAPPPS-NH2) [Compound 11] | 41.78%
11 | His-(D-Ser)-Gln-Gly-Thr-Phe-Thr-Ser-Asp-Tyr-Ser-Lys(PEG2-PEG2-γGlu-CO(CH2)14CH3)-Lys-Leu-Asp-Aib-Arg-Arg-Ala-Gln-Asp-Phe-Val-Gln-Trp-Leu-Met-Asn-Thr-Gly-Gly-Pro-Ser-Ser-Gly-Ala-Pro-Pro-Pro-Ser-NH2 (H[dS]QGTFTSDYSK([PEG2′-PEG2′-γGlu-Palmitoyl])KLD[Aib]RRAQDFVQWLMNTGGPSSGAPPPS-NH2) [Compound 1] | 63.5%
12 | His-Aib-Gln-Gly-Thr-Phe-Thr-Ser-Asp-Lys(PEG2-PEG2-γGlu-CO(CH2)16CH3)-Ser-Lys-Tyr-Leu-Asp-Aib-Arg-Arg-Ala-Gln-Asp-Phe-Val-Gln-Trp-Leu-Leu-Asp-Gly-Gly-Pro-Ser-Ser-Gly-Ala-Pro-Pro-Pro-Ser-NH2 (H[Aib]QGTFTSDK([PEG2′-PEG2′-γGlu-Stearoyl])SKYLD[Aib]RRAQDFVQWLLDGGPSSGAPPPS-NH2) [Compound 12] | 36.99%
13 | His-(D-Ser)-Gln-Gly-Thr-Phe-Thr-Ser-Asp-Tyr-Ser-Lys-Tyr-Leu-Asp-Glu-Lys-Ala-Ala-Lys(PEG2-PEG2-γGlu-CO(CH2)14CH3)-Glu-Phe-Ile-Glu-Trp-Leu-Leu-Arg-Ala-NH2 (H[dS]QGTFTSDYSKYLDEKAAK([PEG2′-PEG2′-γGlu-Palmitoyl])EFIEWLLRA-NH2) [Compound 23] | 45.91%
14 | His-(D-Ser)-Gln-Gly-Thr-Phe-Thr-Ser-Asp-Tyr-Ser-Lys-Tyr-Leu-Asp-Glu-Lys-Ala-Ala-Lys(PEG2-PEG2-γGlu-CO(CH2)16CO2H)-Glu-Phe-Ile-Glu-Trp-Leu-Leu-Arg-Ala-NH2 (H[dS]QGTFTSDYSKYLDEKAAK([PEG2′-PEG2′-γGlu-C18 diacid])EFIEWLLRA-NH2) [Compound 18] | 45.60%
15 | His-Aib-Gln-Gly-Thr-Phe-Thr-Ser-Asp-Lys(PEG2-PEG2-γGlu-CO(CH2)16CH3)-Ser-Lys-Tyr-Leu-Asp-Glu-Arg-Arg-Ala-Gln-Asp-Phe-Val-Gln-Trp-Leu-Leu-Asp-Gly-Gly-Pro-Ser-Ser-Gly-Ala-Pro-Pro-Pro-Ser-NH2 (H[Aib]QGTFTSDK([PEG2′-PEG2′-γGlu-Stearoyl])SKYLDERRAQDFVQWLLDGGPSSGAPPPS-NH2) [Compound 14] | 42.80%
16 | His-(D-Ser)-Gln-Gly-Thr-Phe-Thr-Ser-Asp-Lys(PEG2-PEG2-CO(CH2)16CO2H)-Ser-Lys-Tyr-Leu-Asp-Aib-Arg-Arg-Ala-Gln-Asp-Phe-Val-Gln-Trp-Leu-Met-Asn-Thr-Gly-Gly-Pro-Ser-Ser-Gly-Ala-Pro-Pro-Pro-Ser-NH2 (H[dS]QGTFTSDK([PEG2′-PEG2′-C18 diacid])SKYLD[Aib]RRAQDFVQWLMNTGGPSSGAPPPS-NH2) [Compound 30] | 55.53%
17 | His-(D-Ser)-Gln-Gly-Thr-Phe-Thr-Ser-Asp-Tyr-Ser-Lys-Tyr-Leu-Asp-Lys(PEG2-PEG2-CO(CH2)14CH3)-Arg-Arg-Ala-Gln-Asp-Phe-Val-Gln-Trp-Leu-Leu-Asn-Thr-Gly-Gly-Pro-Ser-Ser-Gly-Ala-Pro-Pro-Pro-Ser-NH2 (H[dS]QGTFTSDYSKYLDK([PEG2′-PEG2′-Palmitoyl])RRAQDFVQWLLNTGGPSSGAPPPS-NH2) [Compound 42] | 38.11%
18 | His-(D-Ser)-Gln-Gly-Thr-Phe-Thr-Ser-Asp-Tyr-Ser-Lys(PEG2-PEG2-CO(CH2)14CH3)-Lys-Leu-Asp-Aib-Arg-Arg-Ala-Gln-Asp-Phe-Val-Gln-Trp-Leu-Met-Asn-Thr-Gly-Gly-Pro-Ser-Ser-Gly-Ala-Pro-Pro-Pro-Ser-NH2 (H[dS]QGTFTSDYSK([PEG2′-PEG2′-Palmitoyl])KLD[Aib]RRAQDFVQWLMNTGGPSSGAPPPS-NH2) [Compound 9] | 41.86%
19 | His-(D-Ser)-Gln-Gly-Thr-Phe-Thr-Ser-Asp-Lys(PEG)-PEG2-γGlu-CO(CH2)16CO2H)-Ser-Lys-Tyr-Leu-Asp-Aib-Arg-Arg-Ala-Gln-Asp-Phe-Val-Gln-Trp-Leu-Met-Asn-Thr-Gly-Gly-Pro-Ser-Ser-Gly-Ala-Pro-Pro-Pro-Ser-NH2 (H[dS]QGTFTSDKSKYLD[Aib]RRAQDFVQWLMNTGGPSSGAPPPS-NH2; not fully specified (residue 10); also: first PEG unit on Lys10 of unstated size) [Compound 5] | 36.04%
20 | His-Aib-Gln-Gly-Thr-Phe-Thr-Ser-Asp-Lys(PEG2-PEG2-γGlu-CO(CH2)14CH3)-Ser-Lys-Tyr-Leu-Asp-Glu-Arg-Arg-Ala-Gln-Asp-Phe-Val-Gln-Trp-Leu-Leu-Asp-Gly-Gly-Pro-Ser-Ser-Gly-Ala-Pro-Pro-Pro-Ser-NH2 (H[Aib]QGTFTSDK([PEG2′-PEG2′-γGlu-Palmitoyl])SKYLDERRAQDFVQWLLDGGPSSGAPPPS-NH2) [Compound 16] | 40.35%
